Measured values reported in patent publication US7691858B2, “Kinase inhibitors and methods of use thereof” (TargeGen, Inc., priority 2006, dated 2010).
Entries after “also recorded” stand apart in the source; their conditions may differ.

Legend:
VEGF-induced edema = experiment: Miles assay, VEGF as agonist; type: in vivo, Sprague-Dawley rats
Experimental: A rodent model of vascular edema, the Miles assay, was used to screen compounds for their ability to inhibit VEGF-induced edema. […] Sprague-Dawley rats were first injected IV with vehicle alone or test agent, followed by IV injection of Evans blue dye, followed by intradermal injections of saline and VEGF (200 ng/injection site) along both shaved flanks.

[1] = system: dextran-induced inflammatory edema; experiment: Rat hindpaw inflammation model, dextran; type: in vivo, Sprague Dawley rats
Experimental: FIG. 4. Inhibition of edema and inflammation. (a, b) Rats were injected i.v. with Evans blue dye and then intradermally with saline, VEGF or histamine. […] (c-f) Rat hindpaws were injected with either PAF (c & d) or dextran (e & f), and three hours later processed as H&E-stained paraffin sections. […] Images were taken of paws representing the mean group value for volume as presented in Results (original magnification 200×).
The Miles assay models a primarily endothelial-based response that develops rapidly (within minutes). As a comparator, we next employed a rodent hindpaw model where more complex inflammatory reactions develop over several hours. Agonists included PAF, a GPCR ligand that activates both EC and leukocytes, and dextran, a phagocytic stimulus for mast cell and leukocyte activation. […] Paw volume (a more quantitative measure of edema and inflammation) was reduced by 62% and 78% in response to PAF or dextran, respectively (n=8, P<0.001). Finally, to correlate these in vivo responses with the molecular target of interest, we monitored PI3K pathway signaling through Western blot analyses of Akt phosphorylation (a PI3K-mediated event).
In order to determine the influence of compounds on the development of inflammation, Sprague Dawley rats were first injected intravenously with either vehicle or test compound at 5 mg/kg, and then 30 min later either PBS (as a control), dextran or platelet activating factor (PAF) was injected into the plantar surface of the hindlimbs, dextran and PAF being known to induce localized inflammatory responses marked by edema. Three hours later, paw dimensions were measured using a caliper and paw volumes calculated; data are shown as the increase in paw volume (mm^3) as compared to controls (paws injected with PBS).

myocardial infarct = experiment: Porcine MI model; type: in vivo, pig
Experimental: PI3Kγ/δ inhibition limits infarct development in a porcine MI model. In a final series of studies, MIs were modeled in the pig, as this species better approximates human coronary anatomy and responses to myocardial I/R injury. With aggressive model parameters of a 90 min ischemic period, therapeutic dosing 30 min post-reperfusion and infarct measurement at 24 h, we typically observed ischemic zones representing 20-30% of the total LV and 20-30% infarction of this area in control animals. […] Measuring infarct area as percent of total LV ischemic area, infarct size was reduced by 35% (P=0.04). […] Finally, taking advantage of the larger porcine heart to make more detailed measurements, infarct areas within the LV free wall only (as opposed to the free plus attached wall measurements reported up to this point) were also determined, reasoning that free wall infarcts are of greatest relevance to overall myocardial function.
Porcine MI model: All animal studies followed current “NIH Guidelines for the Use of Laboratory Animals” and were performed according to IACUC-approved protocols. Farm swine (Landrace-Duroc cross, 32-41 kg) were acclimated for 1-3 weeks prior to study group randomization. On the day of surgery, animals (fasted overnight) were first administered aspirin, clopridogrel and nifedipine (650, 300 and 300 mg p.o., respectively), followed by atropine sulfate and telazol (0.05 and 7 mg/kg i.m., respectively). Anesthesia was then induced with ketamine and xylazine (25 mg/kg each i.m.) followed by intubation and maintenance on inhaled isoflurane; body temperature was maintained at 35-37° C. using heating pads. For each animal, the ventral neck was shaved and scrubbed with iodine, an arterial sheath inserted into the carotid artery, and under fluoroscopic guidance a guide catheter advanced to the coronary artery ostium. Angiographic images were used to guide angioplasty balloon placement (below the first major LAD bifurcation). After advancing through the guide catheter to the proper location, the balloon was inflated at a steady rate to a pressure sufficient to ensure complete occlusion of the LAD (verified by fluoroscopy), and occlusion maintained for 90 min. Blood pressure was monitored throughout the surgical procedure and adjusted as needed, and ECG monitored for arrhythmias as well as to confirm LAD occlusion. Lactated Ringer's solution was maintained as an i.v. drip (via the auricular vein), and heparin given to maintain an activated clotting time of ˜300 seconds. […] At the end of the ischemic period, the balloon was deflated and removed, and the ischemic area allowed to reperfuse (again verified by fluoroscopy). Catheters were removed, the arterial access ligated, the surgical area closed in layers and buprenorphine (0.01 mg/kg i.m.) administered.
On Study Day 2 (24 hr post-LAD occlusion), a surgical plane of anesthesia was established with sodium pentobarbital, and the LAD exposed and occluded using a suture snare at the same level as previously. Evans blue dye (100 ml of 0.1% saline solution) was injected i.v. and allowed to circulate for 5 min prior to explanting the heart. Hearts were cut into approximately 1 cm short axis slices and TTC stained and photographed as described for the rodent MI model. […]

Akt2 = Akt2 (Homo sapiens, UniProt P31751); experiment: Kinase panel screen; type: biochemical; settings: Compound I at 1 μM and ATP at the apparent Km
Sequence of Akt2 (P31751 whole entry): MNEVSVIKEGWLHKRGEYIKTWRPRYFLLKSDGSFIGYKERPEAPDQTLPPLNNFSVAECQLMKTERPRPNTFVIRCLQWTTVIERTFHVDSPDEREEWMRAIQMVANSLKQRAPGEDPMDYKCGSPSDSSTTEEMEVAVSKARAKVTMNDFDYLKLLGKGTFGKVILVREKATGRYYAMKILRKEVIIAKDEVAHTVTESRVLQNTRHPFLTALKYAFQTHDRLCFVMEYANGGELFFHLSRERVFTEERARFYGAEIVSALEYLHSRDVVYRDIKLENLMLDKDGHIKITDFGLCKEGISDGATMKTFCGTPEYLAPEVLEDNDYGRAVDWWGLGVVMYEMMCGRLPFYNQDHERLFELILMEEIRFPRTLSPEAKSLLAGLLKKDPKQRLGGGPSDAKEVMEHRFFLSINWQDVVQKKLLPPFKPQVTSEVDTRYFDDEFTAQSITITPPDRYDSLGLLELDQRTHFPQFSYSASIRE

MINK = target: T1, MINK (Homo sapiens, UniProt Q8N4C8); experiment: Kinase panel screen; type: biochemical; settings: Compound I and ATP 10 μM
T1 construct: purchased Upstate USA or Invitrogen (contract screening service)

MSK1 = target: T2, MSK1 (Homo sapiens, UniProt O75582); experiment: Kinase panel screen; type: biochemical; settings: Compound I and ATP 10 μM
T2 construct: purchased Upstate USA or Invitrogen (contract screening service)
T2 sequence (O75582 whole entry): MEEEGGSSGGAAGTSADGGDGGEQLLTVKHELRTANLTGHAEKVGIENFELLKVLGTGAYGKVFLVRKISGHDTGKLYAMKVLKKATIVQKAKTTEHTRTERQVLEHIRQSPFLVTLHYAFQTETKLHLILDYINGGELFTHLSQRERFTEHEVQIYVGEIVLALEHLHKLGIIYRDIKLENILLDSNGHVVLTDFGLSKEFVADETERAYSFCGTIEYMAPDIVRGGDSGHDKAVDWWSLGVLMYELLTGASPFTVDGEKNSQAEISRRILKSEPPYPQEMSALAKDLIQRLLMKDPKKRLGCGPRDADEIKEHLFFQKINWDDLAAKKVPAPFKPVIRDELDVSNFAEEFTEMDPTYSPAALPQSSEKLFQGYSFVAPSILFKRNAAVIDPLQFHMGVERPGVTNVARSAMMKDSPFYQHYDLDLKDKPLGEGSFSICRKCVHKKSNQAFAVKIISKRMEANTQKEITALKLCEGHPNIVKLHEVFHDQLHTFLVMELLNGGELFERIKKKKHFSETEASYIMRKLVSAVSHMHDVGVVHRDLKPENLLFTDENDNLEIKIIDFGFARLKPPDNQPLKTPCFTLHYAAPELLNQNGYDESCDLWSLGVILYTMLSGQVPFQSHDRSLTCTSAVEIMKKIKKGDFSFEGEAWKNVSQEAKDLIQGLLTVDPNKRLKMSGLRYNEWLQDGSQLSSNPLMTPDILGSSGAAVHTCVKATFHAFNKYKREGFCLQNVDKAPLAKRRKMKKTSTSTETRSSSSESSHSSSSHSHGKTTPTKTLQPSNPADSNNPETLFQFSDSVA

MST1 = target: T3, MST1 (Homo sapiens, UniProt Q13043); experiment: Kinase panel screen; type: biochemical; settings: Compound I and ATP 10 μM
T3 construct: purchased Upstate USA or Invitrogen (commercial screening service)
T3 sequence (Q13043 whole entry): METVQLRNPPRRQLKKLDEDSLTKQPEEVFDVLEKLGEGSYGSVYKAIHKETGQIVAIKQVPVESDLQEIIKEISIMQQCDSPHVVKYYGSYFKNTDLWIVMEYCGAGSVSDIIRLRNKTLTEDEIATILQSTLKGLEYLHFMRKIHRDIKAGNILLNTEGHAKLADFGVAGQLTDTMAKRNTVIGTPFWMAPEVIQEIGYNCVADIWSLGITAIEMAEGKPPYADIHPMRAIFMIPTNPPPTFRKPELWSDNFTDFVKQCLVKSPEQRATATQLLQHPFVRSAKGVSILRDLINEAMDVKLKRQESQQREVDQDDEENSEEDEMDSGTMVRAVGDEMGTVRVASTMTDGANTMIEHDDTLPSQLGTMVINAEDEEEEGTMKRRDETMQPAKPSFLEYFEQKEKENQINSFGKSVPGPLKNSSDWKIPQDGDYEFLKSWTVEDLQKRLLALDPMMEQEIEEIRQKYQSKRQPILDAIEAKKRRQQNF

NEK7 = target: T4, NEK7 (Homo sapiens, UniProt Q8TDX7); experiment: Kinase panel screen; type: biochemical; settings: Compound I and ATP 10 μM
T4 construct: purchased Upstate USA or Invitrogen (commercial screening service)
T4 sequence (Q8TDX7 whole entry): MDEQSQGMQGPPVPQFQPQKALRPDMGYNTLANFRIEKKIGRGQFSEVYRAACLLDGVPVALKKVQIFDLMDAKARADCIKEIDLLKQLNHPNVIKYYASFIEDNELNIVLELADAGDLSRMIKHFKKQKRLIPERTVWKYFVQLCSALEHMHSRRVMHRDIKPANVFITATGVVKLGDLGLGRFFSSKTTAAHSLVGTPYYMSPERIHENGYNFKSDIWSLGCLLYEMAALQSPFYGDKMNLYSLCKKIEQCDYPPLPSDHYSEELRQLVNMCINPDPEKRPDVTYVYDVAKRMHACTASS

IGF-1R = target: T5, IGF-1R (Homo sapiens, UniProt P08069); experiment: Kinase panel screen; type: biochemical; settings: Compound I and ATP 10 μM
T5 construct: purchased Upstate USA or Invitrogen (commercial screening service)
T5 sequence (P08069 31-1367): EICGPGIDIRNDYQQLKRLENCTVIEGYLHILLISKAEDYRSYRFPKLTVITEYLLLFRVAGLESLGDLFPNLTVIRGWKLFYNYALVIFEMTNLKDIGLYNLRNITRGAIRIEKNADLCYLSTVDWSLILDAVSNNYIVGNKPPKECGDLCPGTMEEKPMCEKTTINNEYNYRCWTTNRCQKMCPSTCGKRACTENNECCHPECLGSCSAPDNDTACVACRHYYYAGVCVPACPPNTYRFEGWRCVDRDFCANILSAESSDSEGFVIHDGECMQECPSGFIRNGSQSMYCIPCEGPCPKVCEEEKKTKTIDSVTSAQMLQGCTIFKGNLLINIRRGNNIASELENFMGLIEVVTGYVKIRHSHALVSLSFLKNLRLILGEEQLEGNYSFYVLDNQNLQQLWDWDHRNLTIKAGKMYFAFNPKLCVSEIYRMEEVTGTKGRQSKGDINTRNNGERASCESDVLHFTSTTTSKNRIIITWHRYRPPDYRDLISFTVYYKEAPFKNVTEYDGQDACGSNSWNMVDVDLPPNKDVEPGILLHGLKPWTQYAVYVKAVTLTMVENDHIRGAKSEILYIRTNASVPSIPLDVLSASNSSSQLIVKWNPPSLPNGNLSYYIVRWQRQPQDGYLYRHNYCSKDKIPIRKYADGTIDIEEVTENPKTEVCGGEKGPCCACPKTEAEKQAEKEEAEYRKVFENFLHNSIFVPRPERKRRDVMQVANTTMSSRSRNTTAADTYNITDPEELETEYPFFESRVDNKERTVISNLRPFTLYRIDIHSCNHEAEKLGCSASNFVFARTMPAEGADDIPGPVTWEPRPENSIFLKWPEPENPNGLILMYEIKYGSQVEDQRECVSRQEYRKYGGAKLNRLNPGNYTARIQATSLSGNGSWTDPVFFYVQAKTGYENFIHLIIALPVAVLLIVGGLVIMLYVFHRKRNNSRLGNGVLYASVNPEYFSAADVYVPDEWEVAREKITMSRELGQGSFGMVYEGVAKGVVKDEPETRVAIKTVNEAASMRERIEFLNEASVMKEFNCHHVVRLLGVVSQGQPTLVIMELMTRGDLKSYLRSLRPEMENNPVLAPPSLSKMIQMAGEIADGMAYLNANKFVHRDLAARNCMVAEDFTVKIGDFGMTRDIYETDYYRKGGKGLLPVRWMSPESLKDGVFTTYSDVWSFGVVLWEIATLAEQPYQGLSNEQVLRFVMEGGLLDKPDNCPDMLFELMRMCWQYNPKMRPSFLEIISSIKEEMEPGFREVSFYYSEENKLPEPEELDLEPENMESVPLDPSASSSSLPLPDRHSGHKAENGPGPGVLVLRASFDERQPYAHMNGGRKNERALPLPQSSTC

SAPK3 = target: T6, SAPK3 (Homo sapiens, UniProt P53778); experiment: Kinase panel screen; type: biochemical; settings: Compound I and ATP 10 μM
T6 construct: purchased Upstate USA or Invitrogen (commercial screening service)
T6 sequence (P53778 whole entry): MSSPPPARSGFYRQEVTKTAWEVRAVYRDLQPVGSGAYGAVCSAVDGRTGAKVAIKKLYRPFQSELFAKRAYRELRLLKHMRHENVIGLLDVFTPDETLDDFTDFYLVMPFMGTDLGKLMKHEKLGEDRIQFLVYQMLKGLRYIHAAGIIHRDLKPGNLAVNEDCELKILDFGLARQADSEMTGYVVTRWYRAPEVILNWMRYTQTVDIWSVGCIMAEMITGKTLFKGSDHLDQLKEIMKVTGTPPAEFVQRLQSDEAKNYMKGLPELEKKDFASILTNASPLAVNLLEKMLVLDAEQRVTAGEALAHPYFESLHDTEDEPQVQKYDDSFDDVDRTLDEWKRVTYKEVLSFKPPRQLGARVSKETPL

JNK1a1 = JNK1a1 (Homo sapiens, UniProt P45983); experiment: Kinase panel screen; type: biochemical; settings: Compound I and ATP 10 μM
Sequence of JNK1a1 (P45983 1-384 isoform P45983-2): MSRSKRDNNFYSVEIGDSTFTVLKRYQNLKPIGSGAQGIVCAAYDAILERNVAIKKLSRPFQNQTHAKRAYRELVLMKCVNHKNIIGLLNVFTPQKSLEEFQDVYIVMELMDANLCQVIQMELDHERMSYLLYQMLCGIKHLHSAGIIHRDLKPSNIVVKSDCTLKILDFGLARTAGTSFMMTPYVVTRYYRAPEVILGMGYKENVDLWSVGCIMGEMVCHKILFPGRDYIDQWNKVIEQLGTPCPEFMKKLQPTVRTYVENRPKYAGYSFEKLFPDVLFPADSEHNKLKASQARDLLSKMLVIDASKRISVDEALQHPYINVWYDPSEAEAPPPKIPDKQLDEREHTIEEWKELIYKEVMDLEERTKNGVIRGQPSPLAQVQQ

PKCpiI = target: T7, PKCpiI (Homo sapiens, UniProt P05771); experiment: Kinase panel screen; type: biochemical; settings: Compound I and ATP 10 μM
T7 construct: purchased Upstate USA or Invitrogen (commercial screening service)
T7 sequence (P05771 1-673 isoform P05771-2): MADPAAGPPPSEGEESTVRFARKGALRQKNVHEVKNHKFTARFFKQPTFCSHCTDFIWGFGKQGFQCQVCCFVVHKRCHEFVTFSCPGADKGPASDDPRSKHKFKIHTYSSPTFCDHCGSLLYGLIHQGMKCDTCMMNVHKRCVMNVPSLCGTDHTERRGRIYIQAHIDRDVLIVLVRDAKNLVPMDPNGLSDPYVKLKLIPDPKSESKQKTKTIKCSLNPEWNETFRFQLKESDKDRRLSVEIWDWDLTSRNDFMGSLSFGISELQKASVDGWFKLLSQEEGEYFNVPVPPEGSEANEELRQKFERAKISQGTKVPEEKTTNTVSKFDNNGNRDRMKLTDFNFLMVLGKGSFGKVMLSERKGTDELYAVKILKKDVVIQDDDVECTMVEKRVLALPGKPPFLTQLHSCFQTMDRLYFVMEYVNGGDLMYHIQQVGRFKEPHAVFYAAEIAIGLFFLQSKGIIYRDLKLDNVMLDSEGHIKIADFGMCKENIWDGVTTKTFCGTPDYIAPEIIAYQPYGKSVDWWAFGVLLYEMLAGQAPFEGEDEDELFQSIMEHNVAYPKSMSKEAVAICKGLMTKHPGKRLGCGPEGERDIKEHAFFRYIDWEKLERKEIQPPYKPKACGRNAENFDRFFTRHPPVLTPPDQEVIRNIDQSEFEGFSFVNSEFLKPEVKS

[2] = single 0.5 mg/kg i.v. bolus 30 min post-reperfusion, 24 h

Nc1nc(N)c2nc(-c3cccc(O)c3)c(-c3cccc(O)c3)nc2n1 [Compound I, 6,7-bis-(3-hydroxyphenyl)-pteridine-2,4-diamine] was tested, and the “time for which a single i.v. administration reduced edema formation” value (VEGF-induced edema; Miles assay, varied time between compound and agonist challenge, data not shown) was “at least 4 hours”, the “VEGF-induced vascular permeability / edema formation” value (VEGF-induced edema; rats, Compound I pretreatment (1 mg/kg in FIG. 4)) was “inhibited; also recorded: reduced edema formation” and the “Increase in Paw Volume vs. Controls” value ([1]; Dextran, 5 mg/kg iv 30 min before, 3 hours, mean±SEM N=6, vehicle 148 ± 6) was 32 ± 5 mm^3. The “edema and leukocyte infiltration (histology)” value ([1]; dextran, 5 mg/kg pretreatment, three hours) was “strongly antagonized; also recorded: blocked”, the “reduction of paw volume” value ([1]; dextran, n=8) was 78% and the “reduction of infarct size vs. controls” value (myocardial infarct; single 0.3 mg/kg IV bolus 30 min post-reperfusion, N=12-13) was 32%. For the same compound, the infarct size (myocardial infarct; single 0.3 mg/kg IV bolus 30 min post-reperfusion, controls 56%) was 40%, the “increase in viable tissue within the ischemic zone” value (myocardial infarct; [2]) was 37% and the “reduction of free wall infarct size vs. vehicle-treated controls” value (myocardial infarct; [2]) was 38%. The “reduction of infarct size (infarct area as percent of total LV ischemic area)” value (myocardial infarct; [2]) was 35%, the “Percent Control, Akt2*” value (Akt2) was 103% and the “Percent Control, MINK” value (MINK) was 88%. The “Percent Control, MSK1” value (MSK1) was 92%, the “Percent Control, MST1” value (MST1) was 107% and the “Percent Control, NEK7” value (NEK7) was 99%. The “Percent Control, IGF-1R” value (IGF-1R) was 104%, the “Percent Control, SAPK3” value (SAPK3) was 98% and the “Percent Control, JNK1a1” value (JNK1a1) was 80%. The “Percent Control, PKCpiI” value (PKCpiI) was 80%.
